Our source for the IC50 values is ChEMBL document CHEMBL1201862, “PubChem BioAssay data set” (2004).

Molecules are shown by their SMILES. The source made the active and inactive calls. Cut-off read from the data, not from the text of the source: actives have a measured IC50 and inactives only a lower limit.

For the assay, the target named is Envelope glycoprotein gp160 (Human immunodeficiency virus 1, UniProt Q6QLK5). The experiment in a line: cell-free HIV fusion peptide-binding blockers – biochemical, uHTS, fluorescence dequenching, […] (AID 1986).
Sequence of Envelope glycoprotein gp160 (Q6QLK5 whole entry, the tested form may be a part): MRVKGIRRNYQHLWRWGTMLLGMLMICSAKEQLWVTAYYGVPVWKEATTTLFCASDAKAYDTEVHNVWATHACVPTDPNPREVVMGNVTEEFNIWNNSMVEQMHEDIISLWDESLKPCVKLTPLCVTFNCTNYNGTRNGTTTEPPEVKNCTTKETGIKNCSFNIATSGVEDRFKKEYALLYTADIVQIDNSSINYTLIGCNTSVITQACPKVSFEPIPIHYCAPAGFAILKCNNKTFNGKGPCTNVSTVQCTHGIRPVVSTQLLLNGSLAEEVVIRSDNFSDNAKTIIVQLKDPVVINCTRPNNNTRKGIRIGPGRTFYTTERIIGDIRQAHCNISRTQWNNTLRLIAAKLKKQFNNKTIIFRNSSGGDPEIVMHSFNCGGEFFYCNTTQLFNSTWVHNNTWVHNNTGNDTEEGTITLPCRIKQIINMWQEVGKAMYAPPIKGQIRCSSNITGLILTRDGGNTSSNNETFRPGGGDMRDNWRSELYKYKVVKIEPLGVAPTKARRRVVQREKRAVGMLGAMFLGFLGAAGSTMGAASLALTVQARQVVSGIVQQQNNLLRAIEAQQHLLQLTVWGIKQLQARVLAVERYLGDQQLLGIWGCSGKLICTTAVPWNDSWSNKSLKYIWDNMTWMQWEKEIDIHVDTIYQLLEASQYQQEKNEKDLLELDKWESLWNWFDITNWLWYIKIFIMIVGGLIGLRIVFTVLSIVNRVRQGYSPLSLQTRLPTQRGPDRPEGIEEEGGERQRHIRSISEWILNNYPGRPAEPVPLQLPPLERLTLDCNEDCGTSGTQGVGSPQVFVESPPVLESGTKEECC
Regarding `C/C(=N\Nc1ccc(C(=O)O)cc1)c1ccc2c(c1)Nc1ccccc1S2`, the 50% inhibitory concentration (IC50) (in general, the point on the concentration scale where inhibition reaches its midpoint) is 15.4 µM (active). The result for `O=C(O)c1ccc(Cl)c(S(=O)(=O)Nc2ccccc2C(=O)Nc2ccc(Cl)cc2)c1` reads 17.9 µM (active). The result for `Cc1cccc(OCC(=O)Nc2ccc(C(=O)Nc3ccccc3C(=O)O)cc2)c1C` reads 28.3 µM (active); that for `CC(C)c1ccc(OCC(=O)Nc2cccc(C(=O)Nc3ccccc3C(=O)O)c2)cc1`, 16.9 µM (active).

For `COc1cc(/C=C2\SC(=O)N(Cc3ccc(F)cc3)C2=O)cc([N+](=O)[O-])c1O`, the IC50 was 19.7 µM (active).
